Here are results for four compounds from patent publication US11607458B2 (Georgia State University Research Foundation, Inc, priority 2017, dated 2023).

Experiment [1] in a line: HPLC studies of reaction kinetics of tetrazine prodrugs with cyclooctyne alkynes (Kobs, second-order rate constant k2). The class given is physicochemical. The following applies: alkyne 2b; 37° C.; PBS containing 10% DMSO; n = 3. As for the experimental part:
Stock solution preparation. Each of the tetrazine prodrugs (compounds 1b, 1c, and 1d) was dissolved in DMSO to afford a 500-μM stock solution. Each of the alkynes (compounds 2a, 2b, 2c, and 2d) was dissolved in DMSO to afford a 50-mM stock solution. Doxorubicin (Dox) and dansylamino compound (DA) 1.1b were each dissolved in DMSO to afford 1-mM stock solutions.
HPLC method A.: mobile phase A (10 mM NaH2PO4 in water, pH=5.0) and mobile phase B (ACN), flow rate: 1 mL/min, running time: 30 min, the gradient elution method: 25% B from 0 to 6 min, 25% to 50% B from 6 to 8 min, 50% B from 8 to 15 min, 50% to 99% B from 15 to 20 min, 99% B from 20 to 25 min, 99% to 25% B from 25 to 30 min. Detection wavelength: 256 nm. Column: Waters C18 3.5 μM, 4.6×100 mm. Injection volume: 20 μL.
HPLC method B: mobile phase A (10 mM NaH2PO4 in water, pH=5.0) and mobile phase B (ACN), flow rate: 1 mL/min, running time: 30 min, the gradient elution method: 30% B from 0 to 6 min, 30% to 50% B from 6 to 8 min, 50% B from 8 to 15 min, 50% to 99% B from 15 to 20 min, 99% B from 20 to 25 min. 99% to 30% B from 25 to 30 min. Detection wavelength 1: 256, detection wavelength 2: 337 nm. Column: Waters C18 3.5 μM, 4.6×100 mm. Injection volume: 20 μL.
General procedures HPLC studies of reaction kinetics. To three 20-ml vials with 9 mL PBS were added a solution of tetrazine prodrug (500 μL, 500 μM). 350 μL, 300 μL and 250 μL DMSO were added to vial respectively, and then 150 μL, 200 μL and 250 μL of the alkyne solution (50 mM in DMSO) were added to the vials to afford final concentrations of alkyne 0.75 mM, 1 mM and 1.25 mM in PBS (10% DMSO, 25 μM prodrug) respectively. The reaction was stirred at r.t or 37° C. respectively. Every 30 min about 500 μL reaction mixtures were taken out and 20 μL of them were injected into the HPLC by the autosampler; the rest of them were poured back to the reaction mixture. (Note: In the cases of prodrugs 1d or 1b reacting with alkyne 2d at 37° C., the final concentrations of 2d in the kinetic studies were 250 μM, 300 μM and 350 μM).
Determination of second-order rate constants. The reaction rate constant, kobs, was calculated for each concentration of the alkyne by fitting the prodrug areas versus time using eq. 1: Y=A exp(−kobst) eq. 1 where Y is the prodrug area, and t is time. The pseudo-first-order rate constant, kobs, was then plotted against the concentration of alkyne to yield the second-order rate constant using eq 2: kobs=k2[Alkyne] eq. 2 where k2 is the second-order rate constant.

The next experiment concerns HeLa cells. Briefly: Cytotoxicity studies in HeLa cells (MTT assay / crystal violet assay). The following applies: for pIC50: 48 h, read-out: IC50 in Hela cell line; for effect on cell viability: 20 μM alkyne alone, HeLa cells. Format: cell-based. As to the method: Cell cultures. HeLa cells (ATCC) were used in the following cell culture studies. HeLa cells were maintained in DMEM (Dulbecco's Modified Eagle's Medium) supplemented with 10% fetal bovine serum (MidSci; S01520HI), and 1% penicillin-streptomycin (Sigma-Aldrich; P4333) at 37° C. with 5% CO2.
Cytotoxicity studies. Test compound was dissolved in DMSO to afford a stock solution. The final concentration of DMSO in the cell culture was 1% (v/v) in PBS. HeLa cells were seeded in 96-well plates one day before the experiment. Different concentrations of prodrug was added into the cell culture. The cells were then incubated for 48 h at 37° C. with 5% CO2. The cell viability was tested by the MTT assay described in Levitz, S. M., et al. J Infect Dis 1985, 152, 938-945. Specifically, after 48 h of incubation, 5 mg/mL MTT (3-(4,5-dimethylthiazol-2-yl)-2,5-diphenyltetrazolium bromide) was added into the cell culture. After incubation for 4 h, the supernatant was removed and 100 μL DMSO was added into the wells containing the cells. After shaking gently for 3 min, absorbance at 605 nm was read by a plate reader.
Cytotoxicity studies using crystal violet assay. The test compound was dissolved in DMSO to afford a stock solution. The final concentration of DMSO in cell culture was 1% (v/v) in PBS. HeLa cells were seeded in 96-well plates one day before the experiment. Different concentrations of the test compound were added into the cell culture. The cells were then incubated for 48 h at 37° C. with 5% CO2. Cell viability was tested by the crystal violet assay. Specifically, after 48 h of incubation, the cells were fixed in 100% methanol for 10 min and stained for 20 min with a 1% crystal violet solution in 50% methanol, followed by 5 repeated washings with PBS. 50 μL of DMSO was added to each well. After 20 min of incubation, the plates were analyzed in a microplate reader at 595 nm.
Similar results were observed when the alkyne concentration was decreased to 10 μM. For example, the IC50 of TPP-Dox prodrug 1c was about 2 μM in the presence of 2b, while the IC50 for Dox prodrug 1b was well over 10 μM in the presence of 10 μM of the alkyne trigger 2a (FIG. 3a). As controls, both the IC50 values of 1c and 2b alone were higher than 40 μM, and the treatment of 20 μM of alkyne 2a or 2b alone had no effect on cell viability. […] Without such an enrichment, the reaction is expected to be slow, resulting in a lower level of active Dox being released. […] Thus, mitochondrial enrichment leads to triggered release of the drug. The same concept is applicable to the delivery of drugs through other targeting approaches such as receptor-mediated drug delivery.
For orientation: Formazan colour is commonly taken as a measure of viable cells.

[2] abbreviates: Homo sapiens, HeLa, compound alone.

pIC50: −log10 of the molar value. Like-named read-outs stand apart in the source and are kept apart here.

In general, pIC50 refers to the IC50 on a negative log10 scale, so that one unit is a factor of ten. Consider `C#CCOc1ccc(-c2nnc(C(=O)O)nn2)cc1` [1a, 6-(4-(prop-2-yn-1-yloxy)phenyl)-1,2,4,5-tetrazine-3-carboxylic acid], for which, in experiment [1], the “k2 at 37° C. (second order rate constant)” value came to 0.25 M⁻¹ s⁻¹. Also, the pIC50 in the experiment with HeLa cells (in the presence of 100 μM alkyne 2d) was less than 4.00.

With `O=C(O)c1ccc(CC2(O)C#CCCCCC2)cc1` (stereo not shown) [2a, 4-((1-hydroxycyclooct-2-yn-1-yl)methyl)benzoic acid], the “effect on cell viability” value in the experiment with HeLa cells is “no effect”. With `O=C(NCCC[P+](c1ccccc1)(c1ccccc1)c1ccccc1)c1ccc(CC2(O)C#CCCCCC2)cc1.[Br-]` (stereo not shown) [2b, (3-(4-((1-hydroxycyclooct-2-yn-1-yl)methyl)benzamido)propyl)-triphenylphosphonium bromide], in the experiment on HeLa cells, the “effect on cell viability” value is listed as “no effect”. Moreover, the pIC50 was less than 4.40 in the experiment on HeLa cells (setting [2]) and less than 4.30 with HeLa cells (compound alone, listed as Alkyne 2b). Consider `COc1cccc2c1C(=O)c1c(O)c3c(c(O)c1C2=O)C[C@@](O)(C(=O)CO)C[C@@H]3O[C@H]1C[C@H](N)[C@H](O)[C@H](C)O1` [Dox, Doxorubicin, reference compound], for which the negative logarithm of the IC50 (pIC50) with HeLa cells (setting [2]) was approximately 6.00.
